For the experiment, the system named is T-47D cells. Description: Caspase cascade activation (N-(Ac-DEVD)-N′-ethoxycarbonyl-R110 fluorogenic substrate) in T-47D cells. Also: test concentration or dose not given here. The class given is cell-based, Human. To be noted: T-47D, ratio of net RFU to control.

With `COc1ccc(Nc2nc(Cl)nc3cc(OC)c(OC)cc23)cc1` [Example 21, (2-Chloro-6,7-dimethoxyquinazolin-4-yl)-(4-methoxy-phenyl)-amine], the “Caspase activity Ratio T-47D (24 hr)” value is given as 1.0 and the “Caspase activity Ratio T-47D (48 hr)” value is reported as 1.0. For `Cc1nc(N(C)c2ccncc2)c2ccccc2n1` [Example 136, (2-Methyl-quinazolin-4-yl)-(pyridin-4-yl)-methyl-amine], the “Caspase activity Ratio T-47D (24 hr)” value was determined as 1.2.

Regarding `COc1cc(OC)c(Nc2nc(C)nc3ccccc23)c(OC)c1` [Example 82, (2-Methyl-quinazolin-4-yl)-(2,4,6-trimethoxy-phenyl)-amine], the “Caspase activity Ratio T-47D (24 hr)” value is on record as 1.0. On the same count and under the same terms, with `COc1ccc(N(C)c2nc(C)nc3ccc(N=[N+]=[N-])cc23)cc1` [Example 111, (6-Azido-2-methyl-quinazolin-4-yl)-(4-methoxy-phenyl)-methyl-amine] the figure was 9.4; with `COc1cnc(N(C)c2nc(C)nc3ccccc23)cn1` [Example 126, (5-Methoxy-pyrazin-2-yl)-(2-methyl-quinazolin-4-yl)-methyl-amine], 7.6; with `COc1ccc(N(C)c2nc(N)nc3[nH]cnc23)cc1` [Example 17, N^6-(4-Methoxy-phenyl)-N-6-methyl-9H-purine-2,6-diamine], 3.0. Turning to `Cc1nc(Nc2ccc(OC(F)F)cc2)c2ccccc2n1` [Example 78, (4-Difluoromethoxy-phenyl)-(2-methyl-quinazolin-4-yl)-amine], the “Caspase activity Ratio T-47D (24 hr)” value was 0.6. With `COc1ccc(Nc2nc(Cl)nc3ccccc23)c(OC)c1` [Example 30, (2-Chloro-quinazolin-4-yl)-(2,4-dimethoxy-phenyl)-amine], the “Caspase activity Ratio T-47D (48 hr)” value stood at 1.0. The same measure, in the same setting: the value for `COc1ccc(N(C)c2nc(OC(C)C)nc3cccc(Cl)c23)cc1` [Example 64, (5-Chloro-2-isopropoxy-quinazolin-4-yl)-(4-methoxy-phenyl)-methyl-amine] was 1. Turning to `COc1ccc(N(C)c2nc(N=[N+]=[N-])nc3ccccc23)cc1` [Example 121, (2-Azido-quinazolin-4-yl)-(4-methoxy-phenyl)-methyl-amine], the “Caspase activity Ratio T-47D (24 hr)” value is given as 8.8. With `Cc1nc(N(C)c2ccc(N=[N+]=[N-])cc2)c2ccccc2n1` [Example 102, (4-Azido-phenyl)-(2-methyl-quinazolin-4-yl)-methyl-amine], the “Caspase activity Ratio T-47D (24 hr)” value was 8.8 and the “Caspase activity Ratio T-47D (48 hr)” value is 11.3.

Take `Cc1nc(N(C)c2ccc(O)cc2)c2ccccc2n1` [Example 93, (4-Hydroxy-phenyl)-(2-methyl-quinazolin-4-yl)-methyl-amine]: the “Caspase activity Ratio T-47D (24 hr)” value worked out at 11.3.

With `CN(c1ccc([N+](=O)[O-])cc1)c1nc(Cl)nc2ccccc12` [Example 4, (2-Chloro-quinazolin-4-yl)-(4-nitro-phenyl)-methyl-amine], the “Caspase activity Ratio T-47D (24 hr)” value came to 7.1. On to `CN(c1ccc(Oc2ccccc2)cc1)c1nc(Cl)nc2ccccc12` [Example 69, (2-Chloro-quinazolin-4-yl)-(4-phenoxy-phenyl)-methyl-amine], for which the “Caspase activity Ratio T-47D (48 hr)” value was 1. `COc1ccc(N(C)c2nc(C)nc3ccccc23)cc1F` [Example 85, (3-Fluoro-4-methoxy-phenyl)-(2-methyl-quinazolin-4-yl)-methyl-amine]: the “Caspase activity Ratio T-47D (24 hr)” value was 7.6. Same read-out and setting: the value for `CCc1ccc(Nc2nc(C)nc3ccccc23)cc1` [Example 81, (4-Ethyl-phenyl)-(2-methyl-quinazolin-4-yl)-amine] was 1.9; that for `COc1ccc(N(C)c2nc(Cl)nc3cccc(Cl)c23)cc1` [Example 90, (2,5-Dichloro-quinazolin-4-yl)-(4-methoxy-phenyl)-methyl-amine] was 10.6. Consider `CN(c1ccc2c(c1)OCO2)c1nc(Cl)nc2ccccc12` [Example 67, (2-Chloro-quinazolin-4-yl)-(3,4-methylenedioxyphenyl)-methyl-amine], for which the “Caspase activity Ratio T-47D (48 hr)” value was 12.5. `COc1ccc(Nc2nc(Cl)nc3ccccc23)cn1` [Example 28, (2-Chloro-quinazolin-4-yl)-(6-methoxy-pyridin-3-yl)-amine]: the “Caspase activity Ratio T-47D (24 hr)” value worked out at 1.0 and the “Caspase activity Ratio T-47D (48 hr)” value came out at 1.0. Turning to `COc1ccc(N(C)c2nc(NCCc3c[nH]cn3)nc3ccccc23)cc1` [Example 46, N^2-[2-(1H-Imidazol-4-yl)-ethyl]-N^4-(4-methoxy-phenyl)-N^4-methyl-quinazoline-2,4-diamine], the “Caspase activity Ratio T-47D (24 hr)” value came out at 12.8 and the “Caspase activity Ratio T-47D (48 hr)” value was 9.4. For `CCCOc1ccc(N(C)c2nc(Cl)nc3ccccc23)cc1` [Example 70, (2-Chloro-quinazolin-4-yl)-(4-propoxy-phenyl)-methyl-amine], the “Caspase activity Ratio T-47D (48 hr)” value came out at 11.3. For `COc1cc(OC)c(N(C)c2nc(C)nc3ccccc23)c(OC)c1` [Example 88, (2-Methyl-quinazolin-4-yl)-(2,4,6-trimethoxy-phenyl)-methyl-amine], the “Caspase activity Ratio T-47D (24 hr)” value turned out to be 7.6. For `COC(=O)c1ccc(N(C)c2nc(Cl)nc3ccccc23)cc1` [Example 52, (2-Chloro-quinazolin-4-yl)-(4-methylcarboxyphenyl)-methyl-amine], the “Caspase activity Ratio T-47D (48 hr)” value came to 10.8. On the same count and under the same terms, the value for `CCOc1ccc(N(C)c2nc(Cl)nc3ccccc23)cc1` [Example 97, (2-Chloro-quinazolin-4-yl)-(4-ethoxy-phenyl)-methylamine] was 9.0. The same measure, in the same setting: with `COc1ccc(N(C)c2nc(NCCCN(C)C)nc3ccccc23)cc1` [Example 47, N^2-(3-Dimethylamino-propyl)-N^4-(4-methoxy-phenyl)-N^4-methyl-quinazoline-2,4-diamine] the figure was 11.5. On the same count and under the same terms, with `COc1ccc(N(C)c2nc(N(C)c3ccc(OC)cc3)c3c(Cl)cccc3n2)cc1` [Example 63, 5-Chloro-N^2,N^4-bis-(4-methoxy-phenyl)-N^2,N^4-dimethyl-quinazoline-2,4-diamine] the figure was 10.9. On to `COc1ccc(N(C)c2nc(NCCN3CCOCC3)nc3ccccc23)cc1` [Example 14, N^4-(4-Methoxy-phenyl)-N^4-methyl-N^2-(2-morpholin-4-yl-ethyl)-quinazoline-2,4-diamine], for which the “Caspase activity Ratio T-47D (24 hr)” value is given as 9.7 and the “Caspase activity Ratio T-47D (48 hr)” value worked out at 12.3. For the compound `Cc1ccc(Nc2nc(Cl)nc3ccccc23)cc1` [Example 8, (2-Chloro-quinazolin-4-yl)-(4-methyl-phenyl)-amine], the “Caspase activity Ratio T-47D (24 hr)” value amounted to 1.0. As to `COc1ccc(Oc2ncnc3ccccc23)cc1` [Example 71, 4-(4-Methoxy-phenoxy)-quinazoline], the “Caspase activity Ratio T-47D (48 hr)” value was found to be 6.9. Same read-out and setting: with `COc1ccc(N(C)c2nc(NO)nc3ccccc23)cc1` [Example 10, N^2-Hydroxyl-N^4-(4-methoxy-phenyl)-N^4-methyl-quinazoline-2,4-diamine] the figure was 12.8. Turning to `CC(C)=CCC/C(C)=C/CNc1nc(N(C)c2ccc(C)cc2)c2ccccc2n1` [Example 16, N^2-(3,7-Dimethyl-octa-2,6-dienyl)-N^4-(4-methyl-phenyl)-N^4-methyl-quinazoline-2,4-diamine], the “Caspase activity Ratio T-47D (24 hr)” value was found to be 7.6.

For the compound `COc1ccc(N(C)c2nc(C)nc3ccccc23)nc1` [Example 138, (5-Methoxy-pyridin-2-yl)-(2-methyl-quinazolin-4-yl)-methyl-amine], the “Caspase activity Ratio T-47D (24 hr)” value came to 5.0. In the case of `Cc1nc(N(C)c2ccc(OC(F)F)cc2)c2ccccc2n1` [Example 84, (4-Difluoromethoxy-phenyl)-(2-methyl-quinazolin-4-yl)-methyl-amine], the “Caspase activity Ratio T-47D (24 hr)” value was found to be 6.7.

Regarding `COc1ccc(N(C)c2nc(Cl)nc3ccccc23)cc1OC` [Example 68, (2-Chloro-quinazolin-4-yl)-(3,4-dimethoxy-phenyl)-methyl-amine], the “Caspase activity Ratio T-47D (48 hr)” value was 13.1. In the case of `Cc1nc(N(C)c2cnccn2)c2ccccc2n1` [Example 134, (2-Methyl-quinazolin-4-yl)-(pyrazin-2-yl)-methyl-amine], the “Caspase activity Ratio T-47D (24 hr)” value amounted to 1.2. As to `COc1ccc(N(c2nc(Cl)nc3ccccc23)C(C)C)cc1` [Example 37, (2-Chloro-quinazolin-4-yl)-isopropyl-(4-methoxy-phenyl)-amine], the “Caspase activity Ratio T-47D (24 hr)” value is recorded as 3.3. For `COc1ccc2c(ccn2-c2nc(Cl)nc3ccccc23)c1` [Example 9, 2-Chloro-4-(5-methoxyindol-1-yl)quinazoline], the “Caspase activity Ratio T-47D (48 hr)” value was found to be 1.8.

Consider `CCOc1ccc(Nc2nc(C)nc3ccccc23)cc1` [Example 106, (4-Ethoxy-phenyl)-(2-methyl-quinazolin-4-yl)-amine], for which the “Caspase activity Ratio T-47D (24 hr)” value stood at 1.1.

For `COc1ccc(N(C)c2nc(C)nc3ccccc23)nn1` [Example 125, (6-Methoxy-pyridazin-3-yl)-(2-methyl-quinazolin-4-yl)-methyl-amine], the “Caspase activity Ratio T-47D (24 hr)” value came out at 8.3.

On to `COc1ccc(N(C)c2nc(Cl)nc3cc(Cl)ccc23)cc1` [Example 62, (2,7-Dichloro-quinazolin-4-yl)-(4-methoxy-phenyl)-methyl-amine], for which the “Caspase activity Ratio T-47D (48 hr)” value stood at 12.7.

For the compound `COc1ccc(N(C)c2nc(C)nc3ccccc23)c(F)c1` [Example 99, (2-Fluoro-4-methoxy-phenyl)-(2-methyl-quinazolin-4-yl)-methyl-amine], the “Caspase activity Ratio T-47D (24 hr)” value came out at 6.9. With `COc1ccc(N(C)c2nc(NCCO)nc3ccccc23)cc1` [Example 11, N^2-(2-Hydroxylethyl)-N^4-(4-methoxy-phenyl)-N^4-methyl-quinazoline-2,4-diamine], the “Caspase activity Ratio T-47D (24 hr)” value was found to be 9.0 and the “Caspase activity Ratio T-47D (48 hr)” value amounted to 12.5. With `C[C@H]1CC[C@@H](Nc2nc(Cl)nc3ccccc23)CC1` [Example 130, (2-Chloro-quinazolin-4-yl)-(cis-4-methylcyclohexyl)-amine], the “Caspase activity Ratio T-47D (24 hr)” value is on record as 1.2.

These data come from patent US7618975B2, “4-arylamino-quinazolines and analogs as activators of caspases and inducers of apoptosis and the use thereof” (Myriad Pharmaceuticals, Inc., priority 2003, dated 2009).
